Source: ChEMBL document CHEMBL1795241 (Bioorg Med Chem, 2011)
pIC50, pKi: −log10 of the molar value.

Legend:
LNCaP = assay: cells; details: Homo sapiens, 144 h
Description: Growth inhibition of human LNCAP cells after 6 days

[1] = molecular target: Lysine-specific histone demethylase 1A (Homo sapiens, UniProt O60341)
Description: Inhibition of human recombinant His-tagged full length LSD1 expressed in Escherichia coli BL21 (DE3) assessed as inactivation constant preincubated for 20 mins with substrate measured after 30 mins by AmplexRed based fluorescence quenching assay

| SMILES | pIC50 (LNCaP) | pKi [1] |
| --- | --- | --- |
| N[C@@H]1C[C@H]1c1ccc(-c2ccccc2)cc1 | 3.96 |  |
| N[C@@H]1C[C@H]1c1ccccc1-c1ccccc1 | 3.74 | < 4.00 |
| COc1ccc([C@@H]2C[C@H]2N)cc1 | 2.77 |  |
| N[C@@H]1C[C@H]1c1ccccc1Br | 2.23 |  |
| N[C@@H]1C[C@H]1c1cccc(-c2ccccc2)c1 | 3.65 | < 4.00 |
| N[C@@H]1C[C@H]1c1cccc(Br)c1 | 3.89 |  |
| N[C@@H]1C[C@H]1c1ccc(Br)cc1 | 3.95 |  |
